Measured values published in patent US7566712B2, “Biaryl piperazinyl-pyridine analogues” (Neurogen Corporation, priority 2003, dated 2009).

The molecules below were run against T1, human capsaicin receptor (Homo sapiens, UniProt Q8NER1) (assay: Calcium mobilization assay, determination of antagonist activity (Example 6)). Settings: Table II; IC50 determined as described in Example 6.
T1 construct: pBK-CMV expression construct encoding the full length human capsaicin receptor; expressed in transfected cells
T1 sequence (Q8NER1 whole entry): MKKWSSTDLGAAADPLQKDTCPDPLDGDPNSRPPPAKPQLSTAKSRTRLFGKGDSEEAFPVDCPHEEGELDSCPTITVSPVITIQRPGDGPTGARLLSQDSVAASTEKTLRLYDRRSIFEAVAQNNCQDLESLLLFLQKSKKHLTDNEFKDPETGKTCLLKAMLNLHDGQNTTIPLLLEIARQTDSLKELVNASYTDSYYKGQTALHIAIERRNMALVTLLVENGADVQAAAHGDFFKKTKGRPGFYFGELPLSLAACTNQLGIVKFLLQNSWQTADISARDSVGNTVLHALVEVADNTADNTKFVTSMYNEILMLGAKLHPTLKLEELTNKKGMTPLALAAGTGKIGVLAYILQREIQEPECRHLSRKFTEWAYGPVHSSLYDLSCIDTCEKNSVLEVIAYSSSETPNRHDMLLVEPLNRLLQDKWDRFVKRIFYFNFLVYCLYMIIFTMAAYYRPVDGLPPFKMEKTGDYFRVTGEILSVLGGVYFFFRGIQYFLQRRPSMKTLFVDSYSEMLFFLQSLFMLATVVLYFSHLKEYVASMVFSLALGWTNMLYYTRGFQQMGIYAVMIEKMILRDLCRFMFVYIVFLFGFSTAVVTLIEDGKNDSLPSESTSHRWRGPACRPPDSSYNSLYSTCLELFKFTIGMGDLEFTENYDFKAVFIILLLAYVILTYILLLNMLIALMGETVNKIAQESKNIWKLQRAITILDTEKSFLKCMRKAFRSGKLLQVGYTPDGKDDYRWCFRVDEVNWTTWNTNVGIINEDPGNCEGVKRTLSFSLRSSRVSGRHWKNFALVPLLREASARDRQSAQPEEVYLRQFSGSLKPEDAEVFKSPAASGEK
Format: cell-based
How it was run: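 Antagonism measured as inhibition of capsaicin-evoked (final concentration = EC50, from an 8-point 1 nM–3 μM curve) Fluo-3 calcium signal in stable hVR1-HEK293 cells. Test compounds at 1–5 μM final, 0.5–6 h dark preincubation at room temperature. IC50 = concentration giving 50% reduction versus agonist-only response.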
`CN1CCCC(Oc2nc(-c3ccc(F)c(Cl)c3)cc(N3CCN(c4ncccc4C(F)(F)F)CC3)n2)C1` (centres unmarked) [Example 559, 4-(3-chloro-4-fluorophenyl)-2-[(1-methylpiperidin-3-yl)oxy]-6-{4-[3-(trifluoromethyl)pyridin-2-yl]piperazin-1-yl}pyrimidine] was tested, and the IC50 was at most 1000 nM.
`Fc1ccc(-c2cc(N3CCN(c4ncccc4C(F)(F)F)CC3)nc(OCC3CCNC3)n2)cc1Cl` (centres unmarked) [Example 560, 4-(3-chloro-4-fluorophenyl)-2-(pyrrolidin-3-ylmethoxy)-6-{4-(3-(trifluoromethyl)pyridin-2-yl]piperazin-1-yl}pyrimidine] gave an IC50 of at most 1000 nM.
`Fc1ccc(-c2cc(N3CCN(c4ncccc4C(F)(F)F)CC3)nc(OC3CCNCC3)n2)cc1Cl` [Example 561, 4-(3-chloro-4-fluorophenyl)-2-(piperidin-4-yloxy)-6-{4-[3-(trifluoromethyl)pyridin-2-yl]piperazin-1-yl}pyrimidine] gave an IC50 of at most 1000 nM.
With `CN(C)C1CCN(c2nc(-c3ccc(F)c(Cl)c3)cc(N3CCN(c4ncccc4C(F)(F)F)CC3)n2)C1` (centres unmarked) [Example 562, 1-(4-(3-chloro-4-fluorophenyl)-6-{4-[3-(trifluoromethyl)pyridin-2-yl]piperazin-1-yl}pyrimidin-2-yl)-N,N-dimethylpyrrolidin-3-amine] the IC50 was at most 1000 nM.
`CCN(CC)C1CCN(c2nc(-c3ccc(F)c(Cl)c3)cc(N3CCN(c4ncccc4C(F)(F)F)CC3)n2)CC1` [Example 563, 1-(4-(3-chloro-4-fluorophenyl)-6-{4-[3-(trifluoromethyl)pyridin-2-yl]piperazin-1-yl}pyrimidin-2-yl)-N,N-diethylpiperidin-4-amine] was tested, and the IC50 was at most 1000 nM.
In the case of `CN1CCC(N(C)c2nc(-c3ccc(F)c(Cl)c3)cc(N3CCN(c4ncccc4C(F)(F)F)CC3)n2)C1` (centres unmarked) [Example 564, 4-(3-chloro-4-fluorophenyl)-N-methyl-N-(1-methylpyrrolidin-3-yl)-6-{4-[3-(trifluoromethyl)pyridin-2-yl]piperazin-1-yl}pyrimidin-2-amine], the IC50 is reported as at most 1000 nM.
For `CN1CCC(N(C)c2nc(-c3ccc(F)c(Cl)c3)cc(N3CCN(c4ncccc4C(F)(F)F)CC3)n2)CC1` [Example 565], the IC50 was at most 1000 nM.
For `CCN(CC)CCN(C)c1nc(-c2ccc(F)c(Cl)c2)cc(N2CCN(c3ncccc3C(F)(F)F)CC2)n1` [Example 566, N-1-(4-(3-chloro-4-fluorophenyl)-6-{4-[3-(trifluoromethyl)pyridin-2-yl]piperazin-1-yl}pyrimidin-2-yl)-N-2-,N-2-diethyl-N-1-methylethane-1,2-diamine], the IC50 was at most 1000 nM.
`NC(=O)[C@@H]1CCCN1c1nc(-c2ccc(F)c(Cl)c2)cc(N2CCN(c3ncccc3C(F)(F)F)CC2)n1` [Example 567, 1-(4-(3-chloro-4-fluorophenyl)-6-{4-[3-(trifluoromethyl)pyridin-2-yl]piperazin-1-yl}pyrimidin-2-yl)-L-prolinamide] showed an IC50 of at most 1000 nM.
Molecule `NC1CCN(c2nc(-c3ccc(F)c(Cl)c3)cc(N3CCN(c4ncccc4C(F)(F)F)CC3)n2)C1` (centres unmarked) [Example 568, 1-(4-(3-chloro-4-fluorophenyl)-6-{4-[3-(trifluoromethyl)pyridin-2-yl]piperazin-1-yl}pyrimidin-2-yl)pyrrolidin-3-amine] has an IC50 of at most 1000 nM.
`NC1CCN(c2nc(-c3ccc(F)c(Cl)c3)cc(N3CCN(c4ncccc4C(F)(F)F)CC3)n2)CC1` [Example 569, 1-(4-(3-chloro-4-fluorophenyl)-6-{4-[3-(trifluoromethyl)pyridin-2-yl]piperazin-1-yl}pyrimidin-2-yl)piperidin-4-amine] gave an IC50 of at most 1000 nM.
`CC(=O)NC1CCN(c2nc(-c3ccc(F)c(Cl)c3)cc(N3CCN(c4ncccc4C(F)(F)F)CC3)n2)C1` (centres unmarked) [Example 570, N-[1-(4-(3-chloro-4-fluorophenyl)-6-{4-[3-(trifluoromethyl)pyridin-2-yl]piperazin-1-yl}pyrimidin-2-yl)pyrrolidin-3-yl]acetamide] was tested, and the IC50 was at most 1000 nM.
`CC(=O)NC1CCN(c2nc(-c3ccc(F)c(Cl)c3)cc(N3CCN(c4ncccc4C(F)(F)F)CC3)n2)CC1` [Example 571, N-[1-(4-(3-chloro-4-fluorophenyl)-6-{4-[3-(trifluoromethyl)pyridin-2-yl]piperazin-1-yl}pyrimidin-2-yl)piperidin-4-yl]acetamide] was tested, and the IC50 was at most 1000 nM.

Same assay, conditions: determined as described in Example 6 (calcium mobilization, antagonist activity); Table II
For `CS(=O)(=O)N1CCN(c2nc(-c3ccc(F)c(Cl)c3)cc(N3CCN(c4ncccc4C(F)(F)F)CC3)n2)CC1` [Example 572, 4-(3-chloro-4-fluorophenyl)-2-[4-(methylsulfonyl)piperazin-1-yl]-6-{4-[3-(trifluoromethyl)pyridin-2-yl]piperazin-1-yl)pyrimidine], the IC50 was at most 1000 nM.
With `CCN(CC)c1nc(-c2ccc(F)c(Cl)c2)cc(N2CCN(c3ncccc3C(F)(F)F)CC2)n1` [Example 573, 4-(3-chloro-4-fluorophenyl)-N,N-diethyl-6-{4-[3-(trifluoromethyl)pyridin-2-yl]piperazin-1-yl}pyrimidin-2-amine] the IC50 was at most 1000 nM.
Work on `FC(F)(F)c1cccnc1N1CCN(c2cc(-c3ccccc3)nc(N3CCOCC3)n2)CC1` [Example 574, 4-(4-phenyl-6-{4-[3-(trifluoromethyl)pyridin-2-yl]piperazin-1-yl}pyrimidin-2-yl)morpholine] yielded an IC50 of at most 1000 nM.
In the case of `Cc1cc(-c2cc(N3CCN(c4ncccc4C(F)(F)F)CC3)nc(N3CCOCC3)n2)ccn1` [Example 575, 4-(4-(2-methylpyridin-4-yl)-6-{4-[3-(trifluoromethyl)pyridin-2-yl]piperazin-1-yl}pyrimidin-2-yl)morpholine], the IC50 is reported as at most 1000 nM.
Molecule `Cc1cc(-c2cc(N3CCN(c4ncccc4C(F)(F)F)CC3)nc(N3CCOCC3)n2)ccc1F` [Example 576, 4-(4-(4-fluoro-3-methylphenyl)-6-{4-[3-(trifluoromethyl)pyridin-2-yl]piperazin-1-yl}pyrimidin-2-yl)morpholifle] has an IC50 of at most 1000 nM.
Work on `CCOc1cc(-c2cc(N3CCN(c4ncccc4C(F)(F)F)CC3)nc(N3CCOCC3)n2)ccn1` [Example 577, 4-(4-(2-ethoxypyridin-4-yl)-6-{4-[3-(trifluoromethyl)pyridin-2-yl]piperazin-1-yl}pyrimidin-2-yl)morpholine] yielded an IC50 of at most 1000 nM.
Work on `CN(c1nc(-c2ccc(F)c(Cl)c2)cc(N2CCN(c3ncccc3C(F)(F)F)CC2)n1)C1CCCCC1` [Example 578, 4-(3-chloro-4-fluorophenyl)-N-cyclohexyl-N-methyt-6-{4-[3-(trifluoromethyl)pyridin-2-yl]piperazin-1-yl}pyrimidin-2-amine] yielded an IC50 of at most 1000 nM.
In the case of `CC(C)Nc1nc(-c2ccc(F)c(Cl)c2)cc(N2CCN(c3ncccc3C(F)(F)F)CC2)n1` [Example 580, 4-(3-chloro-4-fluorophenyl)-N-isopropyl-6-{4-[3-(trifluoromethyl)pyridin-2-yl]piperazin-1-yl}pyrimidin-2-amine], the IC50 is reported as at most 1000 nM.
`O=C1NCC2(CCN(c3nc(-c4ccc(F)c(Cl)c4)cc(N4CCN(c5ncccc5C(F)(F)F)CC4)n3)CC2)O1` [Example 581, 8-(4-(3-chloro-4-fluorophenyl)-6-{4-[3-(trifluoromethyl)pyridin-2-yl]piperazin-1-yl}pyrimidin-2-yl)-1-oxa-3,8-diazaspiro[4.5]decan-2-one] was tested, and the IC50 was at most 1000 nM.
For `Fc1ccc(-c2cc(N3CCN(c4ncccc4C(F)(F)F)CC3)nc(OCc3ccccc3C(F)(F)F)n2)cc1F` [Example 582, 4-(3,4-difluorophenyl)-2-{[2-(trifluoromethyl)benzyl]oxy}-6-{4-[3-(trifluoromethyl)pyridin-2-yl]piperazin-1-yl}pyrimidine], the IC50 was at most 1000 nM.
